Measurements taken from the Kinase Knowledgebase extract (Sharma et al. 2016).

Molecular target: MAPK14 (human) (UniProt Q16539)
Test: Inhibition of MAPK14 Kinase Activity

Chain of MAPK14 (human) (Q16539 whole entry, looked up): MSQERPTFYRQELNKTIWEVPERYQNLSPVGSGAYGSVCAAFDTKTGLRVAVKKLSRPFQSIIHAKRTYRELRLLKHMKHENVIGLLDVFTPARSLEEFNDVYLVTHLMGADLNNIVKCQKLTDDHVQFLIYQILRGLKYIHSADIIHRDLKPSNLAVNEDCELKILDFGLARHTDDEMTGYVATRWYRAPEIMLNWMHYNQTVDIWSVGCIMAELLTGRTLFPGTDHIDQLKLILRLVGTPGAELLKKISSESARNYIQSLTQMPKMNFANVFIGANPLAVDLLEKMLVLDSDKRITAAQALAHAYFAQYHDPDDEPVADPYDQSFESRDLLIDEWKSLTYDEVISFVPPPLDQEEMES

| IC50 [µM] | SMILES |
| --- | --- |
| 4 | CCCNc1cc(-c2c(C(C)C)noc2-c2ccc(F)cc2)ccn1 |
| 1.61 | Nc1onc(-c2ccncc2)c1-c1ccc(F)cc1 |
| 82 | CCOc1cc(-c2cnoc2-c2ccc(F)cc2)ccn1 |
| 21 | CCCCOc1cc(-c2cnoc2-c2ccc(F)cc2)ccn1 |
| 0.17 | Fc1ccc(-c2nc[nH]c2-c2ccncc2)cc1 |
| 34 | Fc1ccc(-c2oncc2-c2ccnc(OCCc3ccccc3)c2)cc1 |
| 42 | Fc1ccc(-c2oncc2-c2ccnc(Cl)c2)cc1 |
| 2 | CC(C)c1noc(-c2ccc(F)cc2)c1-c1ccnc(NC2CC2)c1 |
| 1.22 | C[S+]([O-])c1ccc(-c2cc(-c3ccc(F)cc3)c(-c3ccncc3)[nH]2)cc1 (stereo not drawn) |
| 1.22 | Fc1ccc(-c2conc2-c2ccncc2)cc1 |
| 0.2 | Fc1ccc(-c2[nH]c(-c3ccc(Cl)cc3)cc2-c2ccncc2)cc1 |
| 50 | COc1cc(-c2cnoc2-c2ccc(F)cc2)ccn1 |
| 31 | CC(C)Oc1cc(-c2cnoc2-c2ccc(F)cc2)ccn1 |
| 0.63 | Fc1ccc(-c2oc(-c3ccc(Cl)cc3)cc2-c2ccncc2)cc1 |
| 2 | CN1CCC(O)(c2nc(-c3ccncc3)c(-c3ccc(F)cc3)o2)CC1 |
| 89 | Fc1ccc(-c2oncc2-c2ccnc(Br)c2)cc1 |
| 1.3 | CC(C)c1noc(-c2ccc(F)cc2)c1-c1ccnc(NCC2CC2)c1 |
| 56 | CCOc1cc(-c2c(C(C)C)noc2-c2ccc(F)cc2)ccn1 |
| 0.55 | CC(C)c1noc(-c2ccc(F)cc2)c1-c1ccnc(NC(C)c2ccccc2)c1 (stereo not drawn) |
| 41 | Fc1ccc(-c2oncc2-c2ccncc2)cc1 |
| 82 | CCCCCNc1cc(-c2c(C(C)C)noc2-c2ccc(F)cc2)ccn1 |

| SMILES | IC50 [µM] |
| --- | --- |
| CN1CCC(O)(c2nc(-c3ccc(F)cc3)c(-c3ccncc3)o2)CC1 | 0.35 |
| CN1CCC(O)(c2nc(-c3ccc(F)cc3)c(-c3ccncc3)[nH]2)CC1 | 0.09 |
